# Source: patent US20260193293A1, “PEPTIDES CAPABLE OF INHIBITING PROTEIN-PROTEIN INTERACTIONS AT GABAB1A SUBUNIT AND USES THEREOF” (UNIVERSITY OF COPENHAGEN, priority 2022, published 2026)
# Where two headings read alike, the source gives them in different places. Non-standard residues stand in square brackets, D forms with d. Residues, ends and D or L forms follow the SMILES beside them. NMeW = CN[C@@H](Cc1c[nH]c2ccccc12)C(=O)O; 1Nal = N[C@@H](Cc1cccc2ccccc12)C(=O)O; NMeD = CN[C@@H](CC(=O)O)C(=O)O; NMeV = CN[C@H](C(=O)O)C(C)C; NMeS = CN[C@@H](CO)C(=O)O
# Target: Sushi domains (SD1/2) protein
# Assay: Fluorescence polarization (FP) competition assay with AJAP-1probe, calculated Ki
# Assay type: binding
# In short: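 Ki values were derived from IC50s (sigmoidal fits, ≥ triplicate), with probe Kd obtained by saturation titration of SD1/2. Peptides displaced a 25 nM TAMRA-labelled probe; polarization read at 530/580 nm in 1% BSA-containing PBS, pH 7.4, room temperature.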
# [1] = Table 9, Ala-, D-amino acids and N-methylation scans of PIANPWT, read-out: Ki (nM) mean ± SEM
# [2] = Table 11, deep mutational scanning validation variants of AJAP-1WT, read-out: Ki (nM) mean ± SEM
# [3] = Table 7, Ala-, D-amino acids and N-methylation scans of APPWT, read-out: Ki (nM) mean ± SEM
# [4] = CPP tagged peptides overview, SD1/2 binding affinity, mean ± SEM, n ≥ 3, read-out: Ki
# [5] = Table 14, CPPs tagged peptides, read-out: Ki (nM) mean ± SEM
structure (smiles),measurement,setting,value
CC[C@H](C)[C@H](NC(=O)[C@H](C)NC(=O)[C@H](C)NC(=O)[C@@H]1CCCN1C(C)=O)C(=O)N[C@H](C(=O)N[C@@H](Cc1c[nH]c2ccccc12)C(=O)NCC(=O)N1CCC[C@H]1C(=O)N[C@H](C(=O)N[C@H](C(=O)N[C@@H](CO)C(=O)N[C@@H](CCCNC(=N)N)C(=O)N[C@@H](CCC(=O)O)C(=O)N[C@@H](CC(=O)O)C(N)=O)C(C)C)[C@@H](C)O)C(C)C [PAAIVWGPTVSRED] (Ac-PAAIVWGPTVSRED-NH2),Ki,[1],911 ± 13 nM
CC[C@H](C)[C@H](NC(=O)[C@H](C)NC(=O)[C@H](Cc1c[nH]c2ccccc12)NC(=O)[C@@H]1CCCN1C(C)=O)C(=O)N[C@H](C(=O)N[C@@H](Cc1c[nH]c2ccccc12)C(=O)NCC(=O)N1CCC[C@H]1C(=O)N[C@H](C(=O)N(C)[C@H](C(=O)N[C@@H](CO)C(=O)N[C@@H](CCCNC(=N)N)C(=O)N[C@@H](CCC(=O)O)C(=O)N[C@@H](CC(=O)O)C(N)=O)C(C)C)[C@@H](C)O)C(C)C (Ac-PWAIVWGPT[NMeV]SRED-NH2),Ki,[1],1780 ± 87 nM
CC[C@H](C)[C@H](NC(=O)[C@H](C)NC(=O)[C@H](Cc1c[nH]c2ccccc12)NC(=O)[C@@H]1CCCN1C(C)=O)C(=O)N[C@H](C(=O)N[C@@H](Cc1c[nH]c2ccccc12)C(=O)NCC(=O)N1CCC[C@H]1C(=O)N[C@H](C(=O)N[C@H](C(=O)N(C)[C@@H](CO)C(=O)N[C@@H](CCCNC(=N)N)C(=O)N[C@@H](CCC(=O)O)C(=O)N[C@@H](CC(=O)O)C(N)=O)C(C)C)[C@@H](C)O)C(C)C (Ac-PWAIVWGPTV[NMeS]RED-NH2),Ki,[1],1045 ± 1 nM
CC[C@H](C)[C@H](NC(=O)[C@H](Cc1ccccc1)NC(=O)[C@H](CCC(=O)O)NC(=O)[C@@H](NC(=O)[C@H](CCCNC(=N)N)NC(C)=O)[C@@H](C)O)C(=O)N[C@@H](C)C(=O)N[C@@H](Cc1c[nH]c2ccccc12)C(=O)NCC(=O)N1CCC[C@H]1C(=O)N[C@H](C(=O)NCC(=O)N[C@@H](CC(=O)O)C(=O)N[C@@H](CCC(=O)O)C(=O)N[C@@H](CC(=O)O)C(N)=O)[C@@H](C)O [RTEFIAWGPTGDED] (Ac-RTEFIAWGPTGDED-NH2),Ki,[2],87 ± 3 nM
CC[C@H](C)[C@H](NC(=O)[C@H](Cc1ccccc1)NC(=O)[C@H](CCC(=O)O)NC(=O)[C@@H](NC(=O)[C@H](CCC(=O)O)NC(C)=O)[C@@H](C)O)C(=O)N[C@@H](C)C(=O)N[C@@H](Cc1c[nH]c2ccccc12)C(=O)NCC(=O)N1CCC[C@H]1C(=O)N[C@H](C(=O)N[C@@H](CCCNC(=N)N)C(=O)N[C@@H](CC(=O)O)C(=O)N[C@@H](CCC(=O)O)C(=O)N[C@@H](CC(=O)O)C(N)=O)[C@@H](C)O [ETEFIAWGPTRDED] (Ac-ETEFIAWGPTRDED-NH2),Ki,[2],32 ± 1 nM
CC[C@H](C)[C@H](NC(=O)[C@H](C)NC(=O)[C@H](Cc1c[nH]c2ccccc12)NC(=O)[C@@H]1CCCN1C(=O)[C@H](Cc1ccc(O)cc1)NC(C)=O)C(=O)N[C@H](C(=O)N[C@@H](Cc1c[nH]c2ccccc12)C(=O)NCC(=O)N1CCC[C@H]1C(=O)N[C@H](C(=O)N[C@H](C(=O)N[C@@H](CO)C(=O)N[C@@H](CCCNC(=N)N)C(=O)N[C@@H](CCC(=O)O)C(=O)N[C@@H](CC(=O)O)C(=O)NCC(N)=O)C(C)C)[C@@H](C)O)C(C)C (Ac-YPWAIVWGPTVSREDG-NH2),Ki,"Table 6, elongation and truncation scan of PIANP binding epitope, read-out: Ki (nM) mean ± SEM",433 ± 2 nM
CC(=O)N[C@@H](CCC(=O)O)C(=O)N[C@@H](CC(=O)O)C(=O)N[C@@H](CC(=O)O)C(=O)N[C@@H](CO)C(=O)N[C@@H](CC(=O)O)C(=O)N[C@H](C(=O)N[C@@H](Cc1c[nH]c2ccccc12)C(=O)N[C@@H](Cc1cccc2ccccc12)C(=O)NCC(=O)NCC(=O)N[C@@H](C)C(=O)N[C@@H](CC(=O)O)C(=O)N[C@H](C(=O)N[C@@H](CC(=O)O)C(N)=O)[C@@H](C)O)C(C)C [EDDSDVW(1Nala)GGADTD] (Ac-EDDSDVW[1Nal]GGADTD-NH2),Ki,"Table 16, ncAAs incorporated peptides, read-out: Ki (nM) mean ± SEM",499 ± 17 nM
CC[C@H](C)[C@H](NC(=O)[C@H](Cc1ccccc1)NC(=O)[C@H](Cc1c[nH]cn1)NC(=O)[C@@H](NC(=O)[C@H](CCC(=O)O)NC(C)=O)[C@@H](C)O)C(=O)N[C@@H](C)C(=O)N[C@@H](Cc1c[nH]c2ccccc12)C(=O)NCC(=O)N1CCC[C@H]1C(=O)N[C@H](C(=O)NCC(=O)N[C@@H](CC(=O)O)C(=O)N[C@@H](CCC(=O)O)C(=O)N[C@@H](CC(=O)O)C(N)=O)[C@@H](C)O [ETHFIAWGPTGDED],Ki,[2],58 ± 4 nM
CC(=O)N[C@@H](CCC(=O)O)C(=O)N[C@@H](CC(=O)O)C(=O)N[C@@H](CC(=O)O)C(=O)N[C@@H](CO)C(=O)N(C)[C@@H](CC(=O)O)C(=O)N[C@H](C(=O)N[C@@H](Cc1c[nH]c2ccccc12)C(=O)N[C@@H](Cc1c[nH]c2ccccc12)C(=O)NCC(=O)NCC(=O)N[C@@H](C)C(=O)N[C@@H](CC(=O)O)C(=O)N[C@H](C(=O)N[C@@H](CC(=O)O)C(N)=O)[C@@H](C)O)C(C)C (Ac-EDDS[NMeD]VWWGGADTD-NH2),Ki,[3],3760 ± 64 nM
CC[C@H](C)[C@H](NC(=O)[C@H](C)NC(=O)[C@H](Cc1c[nH]c2ccccc12)NC(=O)[C@@H]1CCCN1C(C)=O)C(=O)N[C@@H](CC(=O)O)C(=O)N[C@@H](Cc1c[nH]c2ccccc12)C(=O)NCC(=O)N1CCC[C@H]1C(=O)N[C@H](C(=O)N[C@H](C(=O)N[C@@H](CO)C(=O)N[C@@H](CCCNC(=N)N)C(=O)N[C@@H](CCC(=O)O)C(=O)N[C@@H](CC(=O)O)C(N)=O)C(C)C)[C@@H](C)O [PWAIDWGPTVSRED] (Ac-PWAIDWGPTVSRED-NH2),Ki,"Table 12, deep mutational scanning validation variants of PIANPWT, read-out: Ki (nM) mean ± SEM",1300 ± 16 nM
CC[C@H](C)[C@H](NC(=O)[C@H](Cc1c[nH]c2ccccc12)NC(=O)[C@H](CC(=O)O)NC(=O)[C@H](CC(=O)O)NC(=O)[C@H](CC(=O)O)NC(=O)[C@H](CCC(=O)O)NC(=O)[C@H](CCCCN)NC(=O)[C@H](C)NC(=O)[C@H](C)NC(=O)[C@H](C)NC(=O)[C@H](CCC(=O)O)NC(=O)[C@H](CCCNC(=N)N)NC(=O)[C@H](CCCNC(=N)N)NC(=O)[C@H](CCCNC(=N)N)NC(=O)[C@H](CCCNC(=N)N)NC(=O)[C@H](CCCNC(=N)N)NC(=O)[C@H](CCCNC(=N)N)NC(=O)[C@H](CCCNC(=N)N)NC(=O)[C@H](CCCNC(=N)N)NC(C)=O)C(=O)N[C@@H](CC(=O)O)C(=O)N[C@@H](Cc1c[nH]c2ccccc12)C(=O)N[C@@H](Cc1ccc(O)cc1)C(=O)N[C@@H](CC(=O)O)C(=O)N[C@@H](CO)C(=O)N[C@@H](CC(=O)O)C(=O)N[C@@H](CC(=O)O)C(=O)N[C@@H](CC(=O)O)C(N)=O [Peptide R8-RL-16] (Ac-RRRRRRRREAAAKEDDDWIDWYDSDDD-NH2),Ki,[4],314 ± 4 nM
same,Ki,[5],314 ± 4 nM
CC(=O)N[C@@H](Cc1c[nH]c2ccccc12)C(=O)N[C@@H](Cc1c[nH]c2ccccc12)C(=O)NCC(=O)NCC(=O)N[C@@H](C)C(=O)N[C@@H](CC(=O)O)C(=O)N[C@H](C(=O)N[C@@H](CC(=O)O)C(=O)N[C@@H](Cc1ccc(O)cc1)C(=O)N[C@@H](C)C(=O)N[C@@H](CC(=O)O)C(N)=O)[C@@H](C)O (Ac-WWGGADTDYAD-NH2),Ki,"Table 4, truncation and elongation scans of APP epitope, read-out: Ki (nM) mean ± SEM",> 62500 nM
CC[C@H](C)[C@H](NC(=O)[C@H](Cc1c[nH]c2ccccc12)NC(=O)[C@H](CC(=O)O)NC(=O)[C@H](CC(=O)O)NC(=O)[C@H](CC(=O)O)NC(=O)[C@H](CCC(=O)O)NC(C)=O)C(=O)N[C@@H](CC(=O)O)C(=O)N[C@@H](Cc1c[nH]c2ccccc12)C(=O)NCC(=O)N1CCC[C@H]1C(=O)N[C@H](C(=O)N[C@@H](CO)C(=O)N[C@@H](CC(=O)O)C(=O)N[C@@H](CC(=O)O)C(=O)N[C@@H](CC(=O)O)C(=O)N[C@@H](CCCNC(=N)N)C(=O)N[C@@H](CCCNC(=N)N)C(=O)N[C@@H](CCCNC(=N)N)C(=O)N[C@@H](CCCNC(=N)N)C(=O)N[C@@H](CCCNC(=N)N)C(=O)N[C@@H](CCCNC(=N)N)C(=O)N[C@@H](CCCNC(=N)N)C(=O)N[C@@H](CCCNC(=N)N)C(N)=O)[C@@H](C)O [Peptide 17-R8] (Ac-EDDDWIDWGPTSDDDRRRRRRRR-NH2),Ki,[4],123 ± 4 nM
same,Ki,[5],123 ± 4 nM
CC(=O)N[C@@H](CCC(=O)O)C(=O)N[C@@H](CC(=O)O)C(=O)N[C@@H](CC(=O)O)C(=O)N[C@@H](CO)C(=O)N[C@@H](CC(=O)O)C(=O)N[C@H](C(=O)N(C)[C@@H](Cc1c[nH]c2ccccc12)C(=O)N[C@@H](Cc1c[nH]c2ccccc12)C(=O)NCC(=O)NCC(=O)N[C@@H](C)C(=O)N[C@@H](CC(=O)O)C(=O)N[C@H](C(=O)N[C@@H](CC(=O)O)C(N)=O)[C@@H](C)O)C(C)C [EDDSDV(N-Me-W)WGGADTD] (Ac-EDDSDV[NMeW]WGGADTD-NH2),Ki,[3],85600 ± 10100 nM
CC[C@H](C)[C@H](NC(=O)[C@H](C)NC(=O)[C@H](Cc1c[nH]c2ccccc12)N(C)C(=O)[C@@H]1CCCN1C(C)=O)C(=O)N[C@H](C(=O)N[C@@H](Cc1c[nH]c2ccccc12)C(=O)NCC(=O)N1CCC[C@H]1C(=O)N[C@H](C(=O)N[C@H](C(=O)N[C@@H](CO)C(=O)N[C@@H](CCCNC(=N)N)C(=O)N[C@@H](CCC(=O)O)C(=O)N[C@@H](CC(=O)O)C(N)=O)C(C)C)[C@@H](C)O)C(C)C [P(N-Me-W)AIVWGPTVSRED] (Ac-P[NMeW]AIVWGPTVSRED-NH2),Ki,[1],833 ± 12 nM
CC[C@H](C)[C@H](NC(=O)[C@H](Cc1c[nH]c2ccccc12)NC(=O)[C@H](CC(=O)O)NC(=O)[C@H](CC(=O)O)NC(=O)[C@H](CC(=O)O)NC(=O)[C@H](CCC(=O)O)NC(=O)[C@H](CCCNC(=N)N)NC(=O)[C@H](CCCNC(=N)N)NC(=O)[C@H](CCCNC(=N)N)NC(=O)[C@H](CCCNC(=N)N)NC(C)=O)C(=O)N[C@@H](CC(=O)O)C(=O)N[C@@H](Cc1c[nH]c2ccccc12)C(=O)NCC(=O)N1CCC[C@H]1C(=O)N[C@H](C(=O)N[C@@H](CO)C(=O)N[C@@H](CC(=O)O)C(=O)N[C@@H](CC(=O)O)C(=O)N[C@@H](CC(=O)O)C(N)=O)[C@@H](C)O [Peptide 4R-17] (Ac-RRRREDDDWIDWGPTSDDD-NH2),Ki,[5],15 ± 1 nM
